The compounds below were run against T1, serotonin 5-HT1 A receptor (Rattus norvegicus, UniProt P19327) (assay: displacement of [^3 H]8-OHDPAT from the 5-HT1 A serotonin receptors in rat hippocampal membrane homogenate).
T1 construct: rat hippocampal membrane homogenate; from tissue; host or cells: rat hippocampus (membrane homogenate)
T1 sequence (P19327 1-422): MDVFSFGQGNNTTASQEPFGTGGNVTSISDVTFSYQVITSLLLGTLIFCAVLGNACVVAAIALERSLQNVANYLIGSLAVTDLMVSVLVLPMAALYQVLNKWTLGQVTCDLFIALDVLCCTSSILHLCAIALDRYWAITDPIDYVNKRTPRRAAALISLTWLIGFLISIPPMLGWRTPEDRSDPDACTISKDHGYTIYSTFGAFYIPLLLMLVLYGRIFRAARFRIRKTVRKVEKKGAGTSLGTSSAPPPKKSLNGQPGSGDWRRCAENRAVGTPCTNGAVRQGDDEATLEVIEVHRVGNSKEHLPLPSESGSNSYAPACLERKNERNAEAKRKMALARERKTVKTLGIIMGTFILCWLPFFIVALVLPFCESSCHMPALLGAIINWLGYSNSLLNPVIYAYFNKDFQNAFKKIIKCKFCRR
Format: binding
Source text: High affinity for the serotonin 5-HT1 A receptor was established by testing the claimed compound's ability to displace [^3 H]8-OHDPAT (dipropylaminotetralin) from the 5-HT1 A serotonin receptors in rat hippocampal membrane homogenate following the procedure of B. S. Alexander and M. D. Wood, J. Pharm. Pharmacol. 1988, 40, 888-891.

Going from O=C(N[C@H](Cc1ccccc1)CN1CCN(c2cccc3[nH]ccc23)CC1)C1CCCCC1 [Example 4, (R)- Cyclohexane Carboxylic Acid 1-Phenylmethyl-2-[1-[4-(4-indolyl)piperazinyl]] ethylamide] to O=C(N[C@@H](CN1CCN(c2cccc3[nH]ccc23)CC1)c1ccccc1)C1CCCCC1 [Example 1], the IC50 falls from 8.3 nM to 2 nM (4.2-fold).

Going from CC(=O)N[C@@H](CN1CCN(c2cccc3[nH]ccc23)CC1)c1ccccc1 [Example 2] to O=C(N[C@@H](CN1CCN(c2cccc3[nH]ccc23)CC1)c1ccccc1)c1ccccc1 [Example 3], the IC50 falls from 35.5 nM to 5 nM (7.1-fold).

Source: US5486518A, “4-indolylpiperazinyl derivatives” (American Home Products Corporation, priority 1995, dated 1996)
